ΔTm, Tm shift and Km data for three molecules are collected here from paper PMC5249140, “Delineating Substrate Diversity of Disparate Short-Chain Dehydrogenase Reductase from Debaryomyces hansenii” (PLoS ONE, 2017).

In series [1] the target is T1, DHK (SDR from Debaryomyces hansenii) (Debaryomyces hansenii, UniProt Q6BTD7).
T1 construct: gene DEHA2D01496g; full-length codon-optimised synthetic gene in pET28a, N-terminal His6 tag kept, E. coli BL21(DE3), ~39 kDa, monomer
The series is described as follows: differential scanning fluorimetry, SYPRO orange. In kind it is binding. To be noted: 50 μM ligand, 2.5 μM enzyme; apo Tm 28.04°C.

The target of series [2] is T2, FabG (β-keto ACP reductase) (Synechococcus elongatus, UniProt Q31QF3).
T2 construct: gene Synpcc7942_0684; codon-optimised synthetic gene in pET28a, N-terminal His6 tag, E. coli BL21(DE3), ~29 kDa
The series is described as follows: differential scanning fluorimetry, SYPRO orange. In kind it is binding. To be noted: 2.5 μM enzyme; apo Tm 58°C, with NADPH 65°C.

Substrate in series [3]: CCOC(=O)CC(=O)CCl
As to the kind of experiment: purified protein. In kind it is biochemical, Debaryomyces hansenii. As to conditions: 300 μM NADPH, 100 mM sodium phosphate, 100 mM NaCl, pH 7.4, 25°C.

Substrate in series [4]: NC(=O)C1=CN([C@@H]2O[C@H](COP(=O)(O)OP(=O)(O)OC[C@H]3O[C@@H](n4cnc5c(N)ncnc54)[C@H](OP(=O)(O)O)[C@@H]3O)[C@@H](O)[C@H]2O)C=CC1
The series is described as follows: purified protein. The series is classed as biochemical, Debaryomyces hansenii. As to conditions: 2 mM ethyl 4-chloro acetoacetate, 100 mM sodium phosphate, 100 mM NaCl, pH 7.4, 25°C, varied: cofactor.

T2 sequence (Q31QF3 entry or part of it): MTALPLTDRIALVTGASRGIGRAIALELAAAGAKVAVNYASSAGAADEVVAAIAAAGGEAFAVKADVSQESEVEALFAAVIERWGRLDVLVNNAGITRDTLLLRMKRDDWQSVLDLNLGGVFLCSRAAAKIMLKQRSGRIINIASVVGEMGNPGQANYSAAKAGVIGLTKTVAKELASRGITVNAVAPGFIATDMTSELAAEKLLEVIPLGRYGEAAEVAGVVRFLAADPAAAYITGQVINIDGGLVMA

Take `NC(=O)C1=CN([C@@H]2O[C@H](COP(=O)(O)OP(=O)(O)OC[C@H]3O[C@@H](n4cnc5c(N)ncnc54)[C@H](O)[C@@H]3O)[C@@H](O)[C@H]2O)C=CC1` [NADH]: the ΔTm in series [1] was determined as 1.82 °C.

As for `NC(=O)C1=CN([C@@H]2O[C@H](COP(=O)(O)OP(=O)(O)OC[C@H]3O[C@@H](n4cnc5c(N)ncnc54)[C@H](OP(=O)(O)O)[C@@H]3O)[C@@H](O)[C@H]2O)C=CC1` [NADPH], the Tm shift in series [2] amounted to 7 °C. Moreover, the ΔTm in series [1] was 6.05 °C.

B1: DHK (SDR from Debaryomyces hansenii) (Debaryomyces hansenii CBS767) (protein)
chain: MTRTVFVSGASGFIAQNIVKLLIEKGYNVIGTVRTAEKGENLKKCLASEKFTYEIVPDISVEGAFDKVLEKHSEINVLLHTASPFFYDTTDPENDLVLPAINGTKNILKAVKQYGAQIERVVITSSDAAIYSADDEQNSDLSFNESNWNSISYEDAIKDPIAAYYGAKTFAEKAAWDFVKENNSNFKLTAVNPVYVFGPQAFASEVKGKLNTSNELINTLIKLGPSDLFDNDKGGFIDVRDVAKAHVMAFESEDTINKRLYLTNGHFSTQMMLDIVNKNFPELKGKIPIGNPGTGSQDISTLAKMSNDATRQILNFDFNSLEKVVADTVAQILDARKRTL
notes: full-length codon-optimised synthetic gene in pET28a, N-terminal His6 tag kept, E. coli BL21(DE3), ~39 kDa, monomer
Take B1: the Km stood at 616.1 µM in the series “purified protein [3]” and 51.09 µM in the series “purified protein [4]”.
